Results as given in PMC5750651, “Disposition, Metabolism and Histone Deacetylase and Acetyltransferase Inhibition Activity of Tetrahydrocurcumin and Other Curcuminoids” (Pharmaceutics, 2017).

Assays:
[1] = Total antioxidant capacity assay kit (ABTS, Trolox equivalents); conditions: with respect to Trolox
[2] = biological target: CYP3A4 (Homo sapiens, UniProt P08684); assay: Vivid CYP450 screening kit, CYP3A4; conditions: 0.01-100 μM, relative to ketoconazole; to a lesser extent than CYP2C9
Description: CYP2C9, CYP3A4, CYP1A2 and CYP2D6 assays were performed to assess metabolism and inhibition of human P450 isozymes involved using Vivid® CYP450 screening kits and CYP450 BACULOSOMES® Plus Reagents. CYP450 BACULOSOMES® Plus Reagents express only one CYP450 enzyme, preventing metabolism by other CYP450s. For CYP2C9, the substrate was BOMF and the positive control inhibitor sulfaphenazole; for CYP3A4, DBOMF was the substrate and ketoconazole the positive control inhibitor; for CYP1A2, the substrate was EOMCC and the positive control inhibitor naphthoflavone; for CYP2D6, the substrate was EOMCC and the positive control inhibitor quinidine. The assays were performed using the excitation and emission wavelengths recommended by the manufacturer. […] The plate was incubated for 10 min at room temperature (25 ± 1 °C) on a plate shaker. Then, 10 μL of Vivid® Substrate was added to each well to start the reaction. […] The assay was done in triplicate. The reading was performed at 1 min intervals for 60 min. Inhibition was calculated as (1 − (X − B/A − B)) × 100%, where X was the average of compound fluorescence, A was the average of solvent control and B was the average of inhibition in the presence of positive inhibitor control. The percent inhibition was calculated relative to a fixed concentration of the positive control. […]

[3] = Pharmacokinetic study of THC after oral gavage, serum and urine by UHPLC-MS/MS; conditions: rat, 500 mg/kg oral

Sequence of CYP3A4 (P08684 whole entry): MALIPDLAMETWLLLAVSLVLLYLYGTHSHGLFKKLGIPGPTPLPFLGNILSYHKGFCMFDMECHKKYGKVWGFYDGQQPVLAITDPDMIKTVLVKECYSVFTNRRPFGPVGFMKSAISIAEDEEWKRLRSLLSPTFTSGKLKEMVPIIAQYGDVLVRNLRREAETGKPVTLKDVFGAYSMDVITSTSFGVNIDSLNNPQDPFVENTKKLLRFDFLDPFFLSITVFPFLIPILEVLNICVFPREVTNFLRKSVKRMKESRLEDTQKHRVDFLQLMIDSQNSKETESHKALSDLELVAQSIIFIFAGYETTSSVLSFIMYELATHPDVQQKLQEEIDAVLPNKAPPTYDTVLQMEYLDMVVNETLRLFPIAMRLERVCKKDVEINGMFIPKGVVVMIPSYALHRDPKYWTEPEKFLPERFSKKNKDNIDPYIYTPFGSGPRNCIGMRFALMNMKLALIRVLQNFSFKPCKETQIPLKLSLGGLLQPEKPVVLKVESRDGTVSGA

| Structure (SMILES) | concentration of greatest antioxidant effect [1] [µM] | CYP3A4 inhibition (in words) [2] | time of peak serum THC concentration [3] [h] | serum THC maxima of the two redistribution phases ([3]; at 6 and 24 h) | maximum rate of urinary excretion ([3]; at 2 h) | total amount of THC excreted unchanged in urine ([3]; at 24 h) | serum THC concentration found up to 20 h later ([3]; up to 20 h after the peak) |
| --- | --- | --- | --- | --- | --- | --- | --- |
| COc1cc(/C=C/C(=O)COC(=O)/C=C/c2ccc(O)c(OC)c2)ccc1O [Calebin-A, calebin-A] | 100 | dose-dependent inhibition | – | – | – | – | – |
| COc1cc(CCC(=O)CC(=O)CCc2ccc(O)c(OC)c2)ccc1O [THC, tetrahydrocurcumin] | 100 | dose-dependent inhibition | 1 | about 1 μg/mL | under 3 μg/h | up to 8 μg | greater than 1 μg/mL |
